Values quoted from earlier work, collected in patent publication EP3520802A1, “PROCESS FOR EXTRACTING CURCUMINOIDS” (EFESON - Chemical Research & Engineering Development, priority 2018, dated 2019).

Details: non-clustered curcuminoid, usual value stated as background

logP: around 2.90
Structure (SMILES): COc1cc(/C=C/C(=O)CC(=O)/C=C/c2ccc(O)c(OC)c2)ccc1O [Curcumin I, curcumin]
